For data set [1], the system named is NOD-SCID-IL2Rγc null (NSG) mice. The experiment in a line: In vivo toxicity in NSG mice, 2 weeks, with and without dT. The conditions noted are these: mouse models, 80 mg/kg twice/day. As to the method:
To evaluate the in vivo toxicity selected compounds were injected by intraperitoneal (IP) route to 7 weeks-old male Swiss mice (n = 2) at 10, 20, 40, 50, or 80 mg/kg by unique injection. […] Compounds were administered in their hydrochloride salt forms. Mice were then observed closely for the next one hour, then every hour for 8 h. Observations were continued for 72 h for signs of pain or toxicity such as change in the behavior and in the activity in the cage (decreased locomotion) or change in the appearance (curved back, eyes half-closed, bristle hair, hips hollowed out). In vivo toxicity of compound OR0642 at 40 and 80 mg/kg was also assessed in the NOD-SCID-IL2Rγc null (NSG) mice model for 2 weeks in the presence and absence of dT to confirm the safety of the compound. […]. Blood samples were collected and spun at 10,000 × g prior to collecting the plasma supernatants. All plasma samples were frozen at −80 °C before sample processing. 13 μl of each plasma sample was mixed with 33 μl of acetonitrile to precipitate proteins and extract the compound. […] Supernatants were transferred to a microplate to be analyzed by LC–MS/MS. All samples were analyzed with a UHPLC coupled to a Shimadzu LC-MS 8030 triple quadrupole. The solutions of a standard range, prepared with plasma from untreated mice, were analyzed in the same series of injections.

In data set [2] the target is T1, ADCK3 (Homo sapiens, UniProt Q8NI60).
T1 construct: purchased Eurofins DiscoverX (KINOMEscan scanEDGE 97)
The experiment in a line: KINOMEscan competition binding. The settings on record: OR0642 1 µM; read-out: %Control. How it is done:
(§1) Kinome profiling was provided by Eurofins DiscoverX Corporation. Determination of the % control activity for 97 kinases was obtained through an active site-directed competition binding assay that quantitatively measure interactions between compound and kinases. OR0642 was used at 1 μM.
(§2) Supplementary Table 3. KINOMEscan™ Profiling of OR0642. Competition binding assay to
(§3) quantitatively measure interactions between OR0642 (1 µM) and 97 human kinases and disease
(§4) relevant mutant variants.

Data set [3] concerns the target T2, PDGFRA (Homo sapiens, UniProt P16234).
T2 construct: purchased Eurofins DiscoverX (KINOMEscan scanEDGE 97)
The experiment in a line: KINOMEscan competition binding. The settings on record: OR0642 1 µM; read-out: %Control. How it is done: as §1, §2, §3, §4

In data set [4] the target is T3, JAK3(JH1domain-catalytic) (Homo sapiens, UniProt P52333).
T3 construct: JAK3(JH1domain-catalytic); purchased Eurofins DiscoverX (KINOMEscan scanEDGE 97)
The data set is described as follows: KINOMEscan competition binding. The conditions noted are these: OR0642 1 µM; read-out: %Control. As to the method:
as §1
(§5) Supplementary Table 3. KINOMEscan™ Profiling of OR0642. Competition binding assay to quantitatively measure interactions between OR0642 (1 µM) and 97 human kinases and disease relevant mutant variants.
(§6) Target Gene Symbol %Control Target Gene Symbol %Control […]

Data set [5] concerns the target T4, PIM3 (Homo sapiens, UniProt Q86V86).
T4 construct: purchased Eurofins DiscoverX (KINOMEscan scanEDGE 97)
The data set is described as follows: KINOMEscan competition binding. The settings on record: OR0642 1 µM; read-out: %Control. How it is done: as §1, §5, §6

Data set [6] has as its target T5, PRKCE (Homo sapiens, UniProt Q02156).
T5 construct: purchased Eurofins DiscoverX (KINOMEscan scanEDGE 97)
The experiment in a line: KINOMEscan competition binding. The conditions noted are these: OR0642 1 µM; read-out: %Control. As to the method:
as §1, §5, §6

The target of data set [7] is T6, RAF1 (Homo sapiens, UniProt P04049).
T6 construct: purchased Eurofins DiscoverX (KINOMEscan scanEDGE 97)
The experiment in a line: KINOMEscan competition binding. The conditions noted are these: OR0642 1 µM; read-out: %Control. How it is done: as §1, §5, §6

In data set [8] the target is T7, RIOK2 (Homo sapiens, UniProt Q9BVS4).
T7 construct: purchased Eurofins DiscoverX (KINOMEscan scanEDGE 97)
The experiment in a line: KINOMEscan competition binding. The conditions noted are these: OR0642 1 µM; read-out: %Control. As to the method: as §1, §5, §6

Data set [9] has as its target T8, ROCK2 (Homo sapiens, UniProt O75116).
T8 construct: purchased Eurofins DiscoverX (KINOMEscan scanEDGE 97)
The experiment in a line: KINOMEscan competition binding. The conditions noted are these: OR0642 1 µM; read-out: %Control. As to the method: as §1, §5, §6

Data set [10] concerns the target T9, SNARK (Homo sapiens, UniProt Q9H093).
T9 construct: purchased Eurofins DiscoverX (KINOMEscan scanEDGE 97)
The experiment in a line: KINOMEscan competition binding. The settings on record: OR0642 1 µM; read-out: %Control. As to the method: as §1, §5, §6

Data set [11] has as its target T10, SRC (Homo sapiens, UniProt P12931).
T10 construct: purchased Eurofins DiscoverX (KINOMEscan scanEDGE 97)
The data set is described as follows: KINOMEscan competition binding. The conditions noted are these: OR0642 1 µM; read-out: %Control. As to the method: as §1, §5, §6

For data set [12], the target named is T11, SRPK3 (Homo sapiens, UniProt Q9UPE1).
T11 construct: purchased Eurofins DiscoverX (KINOMEscan scanEDGE 97)
The data set is described as follows: KINOMEscan competition binding. The settings on record: OR0642 1 µM; read-out: %Control. How it is done:
as §1, §5, §6

The target in data set [13] is T12, TGFBR1 (Homo sapiens, UniProt P36897).
T12 construct: purchased Eurofins DiscoverX (KINOMEscan scanEDGE 97)
The data set is described as follows: KINOMEscan competition binding. The settings on record: OR0642 1 µM; read-out: %Control. How it is done: as §1, §5, §6

Data set [14] addresses T13, TIE2 (Homo sapiens, UniProt Q02763).
T13 construct: purchased Eurofins DiscoverX (KINOMEscan scanEDGE 97)
The experiment in a line: KINOMEscan competition binding. The conditions noted are these: OR0642 1 µM; read-out: %Control. As to the method: as §1, §5, §6

Data set [15] addresses T14, TRKA (Homo sapiens, UniProt P04629).
T14 construct: purchased Eurofins DiscoverX (KINOMEscan scanEDGE 97)
The experiment in a line: KINOMEscan competition binding. The conditions noted are these: OR0642 1 µM; read-out: %Control. As to the method: as §1, §5, §6

Data set [16] deals with T15, TSSK1B (Homo sapiens, UniProt Q9BXA7).
T15 construct: purchased Eurofins DiscoverX (KINOMEscan scanEDGE 97)
The experiment in a line: KINOMEscan competition binding. The settings on record: OR0642 1 µM; read-out: %Control. How it is done: as §1, §5, §6

Data set [17] deals with T16, YANK3 (Homo sapiens, UniProt Q86UX6).
T16 construct: purchased Eurofins DiscoverX (KINOMEscan scanEDGE 97)
The data set is described as follows: KINOMEscan competition binding. The conditions noted are these: OR0642 1 µM; read-out: %Control. How it is done: as §1, §5, §6

In data set [18] the test system is PDX UPNT730. The data set is described as follows: Ex vivo testing on PDX samples (viability, flow cytometry, 72 h), with or without OP9-DL1 monolayer. It is filed as cell-based, human. The settings on record: for viability at 12 µM / viability at 37 µM / viability at 111 µM / viability at 333 µM / viability at 1000 µM / viability at 3000 µM: Homo sapiens, read-out: Cell viability, Mean (% viab); for viability at 12 µM: dT 12 µM; for viability at 37 µM: dT 37 µM; for viability at 111 µM: dT 111 µM; for viability at 333 µM: dT 333 µM; for viability at 1000 µM: dT 1000 µM; for viability at 3000 µM: dT 3000 µM. From the text:
Bone marrow-infiltrating blasts from terminally mice bearing PDX as stated above were collected as established before. Extensive analysis (immunophenotype and molecular analysis) of matched primary and PDX samples used in the study are shown in Supplementary Table 7, showing that they remain stable. Briefly, after euthanasia, bone marrows from tibiae, hips, femurs, and vertebrae were isolated and blasts collected for subsequent ex vivo experiments. All samples used contained ≥90% blasts as determined by flow cytometry. For the cytotoxic evaluation of OR0642, blasts were then stained with CellTraceTM Violet (CTV, Thermo Fisher Scientific, C34557) prior seeding at 10,000 cells into 96-well plates under normal conditions or pre-plated with OP9-DL1 cells. Cells were cultured in RPMI 1640 supplemented with 20% fetal bovine serum, 50 µg/ml streptomycin, 50 UI penicillin, 4 mM L-glutamine, and a cocktail of human cytokines as previously established (50 ng/ml human stem cell factor, 20 ng/ml hFLT3-L, 10 ng/ml hIL-7 and 20 nM insulin (Miltenyi Biotec))[28]. […] Rescue by dC supplementation (1 µM) was also evaluated. OR0642 was then tested alone, or combined with dT or dT + dC at two concentrations (0.25 and 0.5 µM). Cell viability was evaluated by flow cytometry 72 h post-treatment. Proliferation indexes were calculated using the detection of CTV in the control replicates (DMSO) and the proliferation modeling tool of FlowJo™ Software 10.7.1 (BD Life Sciences). A control peak of undivided CTV-stained cells was systematically used to set the undivided fraction.
On the technique in general: A flow cytometer gives signals particle by particle.

Where two headings read alike, the source gives them in different places.

T6 sequence (P04049 whole entry): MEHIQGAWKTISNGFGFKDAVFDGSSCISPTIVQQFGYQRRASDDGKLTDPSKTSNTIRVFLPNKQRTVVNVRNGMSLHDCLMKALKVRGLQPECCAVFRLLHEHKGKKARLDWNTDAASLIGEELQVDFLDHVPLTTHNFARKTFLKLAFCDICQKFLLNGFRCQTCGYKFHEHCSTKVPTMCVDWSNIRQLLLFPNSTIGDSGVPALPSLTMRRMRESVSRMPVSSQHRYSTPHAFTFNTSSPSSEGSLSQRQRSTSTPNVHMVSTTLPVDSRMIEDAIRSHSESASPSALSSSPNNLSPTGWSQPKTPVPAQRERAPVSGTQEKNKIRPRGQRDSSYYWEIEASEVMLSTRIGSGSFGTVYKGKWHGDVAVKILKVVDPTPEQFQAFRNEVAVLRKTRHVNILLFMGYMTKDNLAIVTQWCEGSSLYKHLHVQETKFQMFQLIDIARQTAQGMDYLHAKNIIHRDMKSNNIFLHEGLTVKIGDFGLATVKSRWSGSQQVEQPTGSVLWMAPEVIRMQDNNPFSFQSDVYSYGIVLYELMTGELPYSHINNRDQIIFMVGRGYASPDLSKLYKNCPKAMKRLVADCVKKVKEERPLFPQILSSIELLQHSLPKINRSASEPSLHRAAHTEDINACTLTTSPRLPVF
T10 sequence (P12931 whole entry): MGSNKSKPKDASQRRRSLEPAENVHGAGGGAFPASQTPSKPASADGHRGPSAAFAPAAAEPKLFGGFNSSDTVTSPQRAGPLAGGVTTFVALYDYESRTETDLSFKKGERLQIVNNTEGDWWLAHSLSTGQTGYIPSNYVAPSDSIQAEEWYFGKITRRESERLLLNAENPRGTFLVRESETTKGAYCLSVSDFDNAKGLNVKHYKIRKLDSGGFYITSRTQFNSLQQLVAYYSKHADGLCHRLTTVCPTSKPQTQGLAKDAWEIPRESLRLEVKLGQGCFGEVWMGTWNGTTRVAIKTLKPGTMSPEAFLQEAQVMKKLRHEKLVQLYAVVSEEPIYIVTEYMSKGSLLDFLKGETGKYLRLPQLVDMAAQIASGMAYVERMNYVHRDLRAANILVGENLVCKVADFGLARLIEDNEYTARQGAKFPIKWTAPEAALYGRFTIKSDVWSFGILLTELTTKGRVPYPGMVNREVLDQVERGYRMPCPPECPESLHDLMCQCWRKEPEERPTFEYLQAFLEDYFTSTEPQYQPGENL
T16 sequence (Q86UX6 whole entry): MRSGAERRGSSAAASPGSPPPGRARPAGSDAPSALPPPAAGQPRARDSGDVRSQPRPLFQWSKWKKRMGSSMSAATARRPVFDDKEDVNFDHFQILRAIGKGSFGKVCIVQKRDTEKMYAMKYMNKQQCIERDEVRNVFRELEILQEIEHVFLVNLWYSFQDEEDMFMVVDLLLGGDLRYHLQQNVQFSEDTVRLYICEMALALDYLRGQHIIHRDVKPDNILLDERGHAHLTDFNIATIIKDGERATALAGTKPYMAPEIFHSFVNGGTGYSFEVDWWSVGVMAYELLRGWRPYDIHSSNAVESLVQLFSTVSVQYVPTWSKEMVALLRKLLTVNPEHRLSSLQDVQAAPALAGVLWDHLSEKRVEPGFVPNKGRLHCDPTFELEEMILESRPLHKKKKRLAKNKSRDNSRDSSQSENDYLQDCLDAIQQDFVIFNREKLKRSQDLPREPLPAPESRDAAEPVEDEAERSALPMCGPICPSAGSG
T13 sequence (Q02763 23-1124): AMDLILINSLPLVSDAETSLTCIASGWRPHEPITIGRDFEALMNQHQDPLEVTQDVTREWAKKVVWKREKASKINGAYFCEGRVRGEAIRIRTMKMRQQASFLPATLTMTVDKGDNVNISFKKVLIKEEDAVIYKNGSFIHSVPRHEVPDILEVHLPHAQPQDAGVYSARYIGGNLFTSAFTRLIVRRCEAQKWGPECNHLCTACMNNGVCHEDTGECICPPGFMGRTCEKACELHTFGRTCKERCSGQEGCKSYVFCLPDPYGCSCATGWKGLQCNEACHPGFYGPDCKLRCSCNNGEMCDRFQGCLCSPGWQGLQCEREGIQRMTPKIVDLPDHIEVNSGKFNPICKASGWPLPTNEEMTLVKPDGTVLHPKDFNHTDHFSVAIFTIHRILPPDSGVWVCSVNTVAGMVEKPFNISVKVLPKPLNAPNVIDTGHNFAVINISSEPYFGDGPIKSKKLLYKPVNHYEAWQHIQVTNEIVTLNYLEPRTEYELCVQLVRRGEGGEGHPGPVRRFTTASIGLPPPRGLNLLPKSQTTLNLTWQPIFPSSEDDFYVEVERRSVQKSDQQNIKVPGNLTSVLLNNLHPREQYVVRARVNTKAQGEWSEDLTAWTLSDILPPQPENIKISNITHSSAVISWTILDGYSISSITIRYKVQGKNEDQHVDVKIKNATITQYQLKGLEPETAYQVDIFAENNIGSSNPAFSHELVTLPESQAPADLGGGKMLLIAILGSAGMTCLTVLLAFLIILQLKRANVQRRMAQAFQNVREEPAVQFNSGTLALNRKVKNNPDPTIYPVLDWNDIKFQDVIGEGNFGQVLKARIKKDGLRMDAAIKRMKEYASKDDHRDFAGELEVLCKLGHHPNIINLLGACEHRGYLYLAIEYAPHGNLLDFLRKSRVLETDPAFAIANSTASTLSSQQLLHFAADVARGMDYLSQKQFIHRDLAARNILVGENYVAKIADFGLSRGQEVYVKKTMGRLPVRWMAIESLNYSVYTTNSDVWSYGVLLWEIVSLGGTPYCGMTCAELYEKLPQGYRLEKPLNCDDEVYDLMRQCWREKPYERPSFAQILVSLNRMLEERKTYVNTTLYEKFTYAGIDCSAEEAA
T1 sequence (Q8NI60 163-647): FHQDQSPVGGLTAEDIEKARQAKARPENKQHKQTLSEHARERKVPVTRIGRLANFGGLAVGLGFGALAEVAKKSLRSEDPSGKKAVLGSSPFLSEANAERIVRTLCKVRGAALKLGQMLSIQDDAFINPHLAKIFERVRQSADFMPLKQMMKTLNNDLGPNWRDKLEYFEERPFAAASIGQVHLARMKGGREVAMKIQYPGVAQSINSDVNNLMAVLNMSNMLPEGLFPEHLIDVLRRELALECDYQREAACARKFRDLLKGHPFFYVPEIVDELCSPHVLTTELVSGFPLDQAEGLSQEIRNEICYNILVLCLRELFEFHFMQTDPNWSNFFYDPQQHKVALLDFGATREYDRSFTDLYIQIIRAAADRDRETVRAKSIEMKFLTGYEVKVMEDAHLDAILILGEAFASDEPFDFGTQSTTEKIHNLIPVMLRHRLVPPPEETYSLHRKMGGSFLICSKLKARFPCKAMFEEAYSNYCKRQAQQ
T9 sequence (Q9H093 whole entry): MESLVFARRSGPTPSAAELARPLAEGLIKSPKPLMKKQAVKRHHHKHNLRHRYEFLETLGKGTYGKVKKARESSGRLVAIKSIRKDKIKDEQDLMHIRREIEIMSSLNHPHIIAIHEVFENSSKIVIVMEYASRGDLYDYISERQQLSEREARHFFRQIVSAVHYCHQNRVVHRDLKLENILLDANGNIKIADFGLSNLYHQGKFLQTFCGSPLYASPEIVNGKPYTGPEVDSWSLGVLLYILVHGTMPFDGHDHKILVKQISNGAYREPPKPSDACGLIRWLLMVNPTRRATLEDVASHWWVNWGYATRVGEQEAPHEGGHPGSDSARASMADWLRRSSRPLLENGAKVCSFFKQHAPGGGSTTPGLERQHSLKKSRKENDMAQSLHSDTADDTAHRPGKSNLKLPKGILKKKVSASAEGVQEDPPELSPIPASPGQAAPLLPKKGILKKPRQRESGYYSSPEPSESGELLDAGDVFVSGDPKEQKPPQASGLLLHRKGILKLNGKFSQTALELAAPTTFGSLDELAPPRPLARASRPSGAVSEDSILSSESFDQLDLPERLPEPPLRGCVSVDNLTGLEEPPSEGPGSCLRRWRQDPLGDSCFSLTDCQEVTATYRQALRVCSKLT
T3 sequence (P52333 812-1124 limits assumed): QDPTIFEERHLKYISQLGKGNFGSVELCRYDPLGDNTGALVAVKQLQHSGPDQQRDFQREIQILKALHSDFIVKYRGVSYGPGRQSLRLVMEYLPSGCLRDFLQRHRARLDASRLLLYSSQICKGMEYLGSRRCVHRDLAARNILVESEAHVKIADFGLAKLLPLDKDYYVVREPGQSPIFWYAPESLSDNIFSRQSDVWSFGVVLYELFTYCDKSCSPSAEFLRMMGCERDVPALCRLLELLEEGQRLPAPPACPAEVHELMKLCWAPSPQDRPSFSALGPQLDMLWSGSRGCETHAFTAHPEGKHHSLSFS
T14 sequence (P04629 33-796): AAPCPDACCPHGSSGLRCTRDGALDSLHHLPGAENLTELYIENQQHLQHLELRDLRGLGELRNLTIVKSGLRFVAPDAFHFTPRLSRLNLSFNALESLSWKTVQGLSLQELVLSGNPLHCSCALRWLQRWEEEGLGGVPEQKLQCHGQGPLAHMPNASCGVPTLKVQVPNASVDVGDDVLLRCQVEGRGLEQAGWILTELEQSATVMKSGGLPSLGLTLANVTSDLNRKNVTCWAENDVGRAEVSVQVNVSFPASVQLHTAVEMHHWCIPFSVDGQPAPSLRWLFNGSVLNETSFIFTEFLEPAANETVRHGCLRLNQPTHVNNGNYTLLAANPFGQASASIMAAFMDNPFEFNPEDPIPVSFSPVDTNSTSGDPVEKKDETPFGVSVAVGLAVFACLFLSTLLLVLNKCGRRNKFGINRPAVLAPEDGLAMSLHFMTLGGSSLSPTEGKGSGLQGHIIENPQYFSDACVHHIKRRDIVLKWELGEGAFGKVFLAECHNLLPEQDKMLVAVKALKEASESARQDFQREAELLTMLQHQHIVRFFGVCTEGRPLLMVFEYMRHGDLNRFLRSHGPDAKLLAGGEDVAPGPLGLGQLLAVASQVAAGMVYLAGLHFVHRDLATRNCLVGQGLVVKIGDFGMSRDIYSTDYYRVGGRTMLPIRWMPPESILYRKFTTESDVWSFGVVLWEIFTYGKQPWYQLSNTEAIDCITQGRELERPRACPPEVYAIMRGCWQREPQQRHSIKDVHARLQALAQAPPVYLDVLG

Consider `CCCN(c1nc(-c2nc(N)cc(N)n2)cs1)c1cc(-c2ccc(S(=O)(=O)N3CCN(C)CC3)cc2C(F)(F)F)ccc1C` [OR0642], for which, in [1], the in vivo tolerance result is listed as “well tolerated”. The remaining binding at 1 µM in data set [2] was 95%; in data set [3], 97%; in [4], 97%; in data set [5], 100%; in data set [6], 100%; in data set [7] it was 88%. Besides, the remaining binding at 1 µM in data set [8] was determined as 98%; in data set [9], 99%; in [10], 88%; in data set [11], 92%; in data set [12], 93%; in data set [13], 98%. Moreover, the remaining binding at 1 µM in data set [14] is 94%; in data set [15], 100%; in [16], 100%; in [17] it was 97%.

The viability is a read-out of living cells in per cent, often relative to untreated cells. Take `Cc1cn([C@H]2C[C@H](O)[C@@H](CO)O2)c(=O)[nH]c1=O` [dT, thymidine]: in data set [18] (UPNT730 + OP9-DL1), the viability at 12 µM worked out at 100%, the viability at 37 µM stood at 96.3%, the viability at 111 µM is 86.4% and the viability at 333 µM is 82%. For the same compound, in data set [18] (UPNT730 + OP9-DL1), the viability at 1000 µM was 72.2% and the viability at 3000 µM worked out at 72.9%. Besides, in data set [18] (UPNT730), the viability at 12 µM is 100%, the viability at 37 µM came out at 106%, the viability at 111 µM came out at 107% and the viability at 333 µM worked out at 109%. Also, in [18] (UPNT730), the viability at 1000 µM is 102% and the viability at 3000 µM was determined as 105%. Moreover, the “Response at dT100 µM” value in [18] (PDX 730, dT 100 µM) amounted to 17. Moreover, the “sensitivity” value in [18] (proliferative conditions (OP9-DL1 monolayer)) was “sensitive”.
